Measured values from PubChem BioAssay AID256 (DTP/NCI, 2004).
Where “and” joins values, the source holds several entries; their conditions need not be identical. Equal values may be shown once. Toxic doses and inconclusive results are not listed.

System: CD2F1 mice, L1210 leukemia ip, survival T/C
Test: NCI In Vivo Anticancer Drug Screen. Data for tumor model L1210 Leukemia (intraperitoneal) in CD2F1 (CDF1) mice
Conditions: higher = longer survival
Summary of the method: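 Read-out first: treated-group measurement over vehicle-control measurement, expressed as a ratio. Animals bore a transplanted tumor line and were dosed with compound or vehicle.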

[1] = endpoint: mean survival time, dose: 100.0 mg/kg/injection, schedule: Q01DX009 (ip), vehicle: saline
[2] = endpoint: mean survival time, dose: 200.0 mg/kg/injection, schedule: Q01DX009 (ip), vehicle: saline
[3] = endpoint: mean survival time, dose: 400.0 mg/kg/injection, schedule: Q01DX009 (ip), vehicle: saline
[4] = endpoint: mean survival time, dose: 50.0 mg/kg/injection, schedule: Q01DX009 (ip), vehicle: saline with Tween-80
[5] = endpoint: mean survival time, dose: 100.0 mg/kg/injection, schedule: Q04DX003 (ip), vehicle: saline with Tween-80
[6] = endpoint: mean survival time, dose: 100.0 mg/kg/injection, schedule: Q04DX003 (ip), vehicle: Klucel (hydroxypropylcellulose) (HPC)
[7] = endpoint: mean survival time, dose: 100.0 mg/kg/injection, schedule: Q01DX009 (ip), vehicle: saline with Tween-80
[8] = endpoint: mean survival time, dose: 200.0 mg/kg/injection, schedule: Q01DX009 (ip), vehicle: saline with Tween-80
[9] = endpoint: mean survival time, dose: 200.0 mg/kg/injection, schedule: Q04DX003 (ip), vehicle: saline with Tween-80
[10] = endpoint: mean survival time, dose: 100.0 mg/kg/injection, schedule: Q01DX001 (ip), vehicle: saline
[11] = endpoint: mean survival time, dose: 100.0 mg/kg/injection, schedule: Q01DX001 (ip), vehicle: saline with Tween-80
[12] = endpoint: mean survival time, dose: 200.0 mg/kg/injection, schedule: Q01DX001 (ip), vehicle: saline with Tween-80
[13] = endpoint: mean survival time, dose: 400.0 mg/kg/injection, schedule: Q01DX001 (ip), vehicle: saline with Tween-80
[14] = endpoint: mean survival time, dose: 400.0 mg/kg/injection, schedule: Q04DX003 (ip), vehicle: saline with Tween-80

Nc1ncnc2c1ncn2C1OC(COP(=O)(O)O)C(O)C1O (stereo not drawn)
T/C (endpoint: mean survival time, dose: 9.4 mg/kg/injection, schedule: Q03HX016 (ip), vehicle: water): 106 % of control | T/C (endpoint: mean survival time, dose: 9.4 mg/kg/injection, schedule: Q03HX024 (ip), vehicle: water): 109 % of control | T/C (endpoint: mean survival time, dose: 12.5 mg/kg/injection, schedule: Q01DX009 (ip), vehicle: saline): 98 % of control | T/C (endpoint: mean survival time, dose: 12.5 mg/kg/injection, schedule: Q01DX009 (ip), vehicle: water): 103 % of control | T/C (endpoint: mean survival time, dose: 18.8 mg/kg/injection, schedule: Q03HX016 (ip), vehicle: water): 110 % of control | T/C (endpoint: mean survival time, dose: 18.8 mg/kg/injection, schedule: Q03HX024 (ip), vehicle: water): 107 % of control | T/C (endpoint: mean survival time, dose: 25.0 mg/kg/injection, schedule: Q01DX009 (ip), vehicle: saline): 104 % of control | T/C (endpoint: mean survival time, dose: 25.0 mg/kg/injection, schedule: Q01DX009 (ip), vehicle: water): 107 % of control | T/C (endpoint: mean survival time, dose: 27.5 mg/kg/injection, schedule: Q03DX024 (ip), vehicle: saline): 107 % of control | T/C (endpoint: mean survival time, dose: 27.5 mg/kg/injection, schedule: Q04DX003 (ip), vehicle: saline): 105 % of control | T/C (endpoint: mean survival time, dose: 36.7 mg/kg/injection, schedule: Q03DX024 (ip), vehicle: saline): 115 % of control | T/C (endpoint: mean survival time, dose: 36.7 mg/kg/injection, schedule: Q04DX003 (ip), vehicle: saline): 103 % of control | T/C (endpoint: mean survival time, dose: 37.5 mg/kg/injection, schedule: Q03HX016 (ip), vehicle: water): 114 % of control | T/C (endpoint: mean survival time, dose: 37.5 mg/kg/injection, schedule: Q03HX024 (ip), vehicle: water): 113 % of control | T/C (endpoint: mean survival time, dose: 50.0 mg/kg/injection, schedule: Q01DX009 (ip), vehicle: saline): 100 % of control | T/C (endpoint: mean survival time, dose: 50.0 mg/kg/injection, schedule: Q01DX009 (ip), vehicle: water): 109 % of control | T/C (endpoint: mean survival time, dose: 55.0 mg/kg/injection, schedule: Q03DX024 (ip), vehicle: saline): 112 % of control | T/C (endpoint: mean survival time, dose: 55.0 mg/kg/injection, schedule: Q04DX003 (ip), vehicle: saline): 104 % of control | T/C (endpoint: mean survival time, dose: 73.3 mg/kg/injection, schedule: Q03DX024 (ip), vehicle: saline): 118 % of control | T/C (endpoint: mean survival time, dose: 73.3 mg/kg/injection, schedule: Q04DX003 (ip), vehicle: saline): 106 % of control | T/C (endpoint: mean survival time, dose: 75.0 mg/kg/injection, schedule: Q03HX016 (ip), vehicle: water): 115 % of control | T/C (endpoint: mean survival time, dose: 75.0 mg/kg/injection, schedule: Q03HX024 (ip), vehicle: water): 118 % of control | T/C [1]: 102 % of control | T/C (endpoint: mean survival time, dose: 100.0 mg/kg/injection, schedule: Q01DX009 (ip), vehicle: water): 115 % of control | T/C [2]: 102 % of control and 108 % of control | T/C (endpoint: mean survival time, dose: 200.0 mg/kg/injection, schedule: Q01DX009 (ip), vehicle: water): 119 % of control | T/C (endpoint: mean survival time, dose: 315.0 mg/kg/injection, schedule: Q01DX009 (ip), vehicle: saline): 106 % of control | T/C (endpoint: mean survival time, dose: 375.0 mg/kg/injection, schedule: Q03HX024 (ip), vehicle: saline): 156 % of control | T/C [3]: 114 % of control and 102 % of control | T/C (endpoint: mean survival time, dose: 470.0 mg/kg/injection, schedule: Q01DX009 (ip), vehicle: saline): 110 % of control | T/C (endpoint: mean survival time, dose: 700.0 mg/kg/injection, schedule: Q01DX009 (ip), vehicle: saline): 112 % of control | T/C (endpoint: mean survival time, dose: 800.0 mg/kg/injection, schedule: Q01DX009 (ip), vehicle: saline): 122 % of control | T/C (endpoint: median survival time, dose: 20.0 mg/kg/injection, schedule: Q01DX009 (ip), vehicle: water): 102 % of control | T/C (endpoint: median survival time, dose: 40.0 mg/kg/injection, schedule: Q01DX009 (ip), vehicle: water): 105 % of control and 107 % of control | T/C (endpoint: median survival time, dose: 80.0 mg/kg/injection, schedule: Q01DX009 (ip), vehicle: water): 124 % of control and 108 % of control | T/C (endpoint: median survival time, dose: 160.0 mg/kg/injection, schedule: Q01DX009 (ip), vehicle: water): 117 % of control

O=[N+]([O-])c1cc2ccccc2c(O)c1O
T/C (endpoint: mean survival time, dose: 25.0 mg/kg/injection, schedule: Q01DX009 (ip), vehicle: saline with Tween-80): 102 % of control | T/C [4]: 108 % of control | T/C [5]: 91 % of control

Nc1cccc(NC=O)c1
T/C [6]: 102 % of control

CC1(C)CC2(OC2c2ccc([N+](=O)[O-])cc2)C(=O)c2ccccc21 (stereo not drawn)
T/C (endpoint: mean survival time, dose: 12.5 mg/kg/injection, schedule: Q01DX009 (ip), vehicle: Klucel (hydroxypropylcellulose) (HPC)): 93 % of control | T/C (endpoint: mean survival time, dose: 25.0 mg/kg/injection, schedule: Q01DX009 (ip), vehicle: Klucel (hydroxypropylcellulose) (HPC)): 94 % of control | T/C (endpoint: mean survival time, dose: 50.0 mg/kg/injection, schedule: Q01DX009 (ip), vehicle: Klucel (hydroxypropylcellulose) (HPC)): 98 % of control | T/C [4]: 93 % of control | T/C (endpoint: mean survival time, dose: 100.0 mg/kg/injection, schedule: Q01DX009 (ip), vehicle: Klucel (hydroxypropylcellulose) (HPC)): 100 % of control | T/C [7]: 93 % of control | T/C [5]: 89 % of control | T/C (endpoint: mean survival time, dose: 200.0 mg/kg/injection, schedule: Q01DX009 (ip), vehicle: Klucel (hydroxypropylcellulose) (HPC)): 100 % of control | T/C [8]: 96 % of control | T/C [9]: 88 % of control | T/C (endpoint: mean survival time, dose: 400.0 mg/kg/injection, schedule: Q01DX009 (ip), vehicle: Klucel (hydroxypropylcellulose) (HPC)): 96 % of control

CC=C(C(=O)OCC)C(=O)OCC
T/C [10]: 95 % of control | T/C (endpoint: mean survival time, dose: 200.0 mg/kg/injection, schedule: Q01DX001 (ip), vehicle: saline): 98 % of control | T/C (endpoint: mean survival time, dose: 400.0 mg/kg/injection, schedule: Q01DX001 (ip), vehicle: saline): 107 % of control

CC(C)C1CCC(C)C(C(O)(C(F)(F)F)C(F)(F)F)C1=O (stereo not drawn)
T/C [6]: 96 % of control | T/C (endpoint: mean survival time, dose: 200.0 mg/kg/injection, schedule: Q04DX003 (ip), vehicle: Klucel (hydroxypropylcellulose) (HPC)): 95 % of control | T/C (endpoint: mean survival time, dose: 400.0 mg/kg/injection, schedule: Q04DX003 (ip), vehicle: Klucel (hydroxypropylcellulose) (HPC)): 96 % of control

Nc1ccc2c(c1)[nH]c1ccccc12
T/C [5]: 93 % of control | T/C [9]: 101 % of control

C[N+]1(CCC(c2ccccc2)c2ccccc2)CCCCC1
T/C (endpoint: mean survival time, dose: 12.5 mg/kg/injection, schedule: Q04DX003 (ip), vehicle: saline): 96 % of control | T/C (endpoint: mean survival time, dose: 25.0 mg/kg/injection, schedule: Q04DX003 (ip), vehicle: saline): 104 % of control | T/C (endpoint: mean survival time, dose: 50.0 mg/kg/injection, schedule: Q04DX003 (ip), vehicle: saline): 102 % of control

O=C(CC(O)(C(F)(F)F)C(F)(F)F)c1ccc(F)cc1
T/C (endpoint: mean survival time, dose: 100.0 mg/kg/injection, schedule: Q01DX009 (ip), vehicle: other): 98 % of control | T/C (endpoint: mean survival time, dose: 200.0 mg/kg/injection, schedule: Q01DX009 (ip), vehicle: other): 98 % of control | T/C (endpoint: mean survival time, dose: 400.0 mg/kg/injection, schedule: Q01DX009 (ip), vehicle: other): 98 % of control

CC1(C)COC(c2ccc(-c3ccc(C4=NC(C)(C)CO4)cc3)cc2)=N1
T/C [11]: 105 % of control | T/C [12]: 100 % of control | T/C [13]: 100 % of control

Nc1ncnc2nc(-c3ccc(Cc4ccccc4)cc3)[nH]c12
T/C (endpoint: mean survival time, dose: 0.63 mg/kg/injection, schedule: Q01DX009 (ip), vehicle: saline): 96 % of control | T/C (endpoint: mean survival time, dose: 1.25 mg/kg/injection, schedule: Q01DX009 (ip), vehicle: saline): 95 % of control | T/C (endpoint: mean survival time, dose: 2.5 mg/kg/injection, schedule: Q01DX009 (ip), vehicle: saline): 95 % of control

CCOC(CCC#N)c1ccc(Cl)cc1 (stereo not drawn)
T/C [1]: 98 % of control | T/C [5]: 92 % of control | T/C [2]: 101 % of control | T/C [9]: 100 % of control | T/C [3]: 98 % of control | T/C [14]: 102 % of control

O=C1c2ccccc2SCCC1C(O)c1ccccc1 (stereo not drawn)
T/C [11]: 94 % of control | T/C [12]: 94 % of control | T/C [13]: 94 % of control

CC(C)(CO)Nc1ccc([N+](=O)[O-])cc1
T/C [11]: 104 % of control | T/C [12]: 106 % of control | T/C [13]: 107 % of control

CN(C)CC(C)(C)C(=O)c1ccc(F)cc1
T/C (endpoint: mean survival time, dose: 12.5 mg/kg/injection, schedule: Q04DX002 (ip), vehicle: saline): 104 % of control | T/C (endpoint: mean survival time, dose: 25.0 mg/kg/injection, schedule: Q04DX002 (ip), vehicle: saline): 101 % of control | T/C (endpoint: mean survival time, dose: 50.0 mg/kg/injection, schedule: Q04DX002 (ip), vehicle: saline): 96 % of control

[I-].[Ni+2].[O-]/N=C/c1ccccn1.[O-]/N=C/c1ccccn1.[O-]/N=C/c1ccccn1
T/C [10]: 106 % of control

Cc1cccc(C)c1NC(=O)c1ccccc1C(=O)O
T/C [7]: 92 % of control | T/C [5]: 98 % of control | T/C [8]: 92 % of control | T/C [9]: 98 % of control | T/C (endpoint: mean survival time, dose: 400.0 mg/kg/injection, schedule: Q01DX009 (ip), vehicle: saline with Tween-80): 97 % of control | T/C [14]: 96 % of control
